Data: PubChem BioAssay AID2060501 (Molecular Pharmacology Branch, DTP, NCI, 2025)

Tested on: 282377-053-R-J1-PDC complex spheroids, viability
Experiment: Anticancer human tumor 282377-053-R-J1-PDC patient-derived colon adenocarcinoma cell line growth inhibition [GQUAD]
Settings: for IC50: curve of first compound; for viability, T/C: stronger effect = lower value
Outline: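 Multi-cell-type spheroids of tumor cells with HUVEC and mesenchymal stem cells, treated with drug combinations. Concentrations descend in half-log steps from near clinical Cmax, or from 10 microM where Cmax is unknown; viability read-out.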

[1] = second compound 0.0316 µM, first compound 0.0316 µM
[2] = second compound 0.0316 µM, first compound 0.1 µM
[3] = second compound 0.0316 µM, first compound 0.316 µM
[4] = second compound 0.0316 µM, first compound 1 µM
[5] = second compound 0.0316 µM, first compound 3.16 µM
[6] = second compound 0.0316 µM, first compound 10 µM
[7] = second compound 0.1 µM, first compound 0.0316 µM
[8] = second compound 0.1 µM, first compound 0.1 µM
[9] = second compound 0.1 µM, first compound 0.316 µM
[10] = second compound 0.1 µM, first compound 1 µM
[11] = second compound 0.1 µM, first compound 3.16 µM
[12] = second compound 0.1 µM, first compound 10 µM
[13] = second compound 0.316 µM, first compound 0.0316 µM
[14] = second compound 0.316 µM, first compound 0.1 µM
[15] = second compound 0.316 µM, first compound 0.316 µM
[16] = second compound 0.316 µM, first compound 1 µM
[17] = second compound 0.316 µM, first compound 3.16 µM
[18] = second compound 0.316 µM, first compound 10 µM
[19] = second compound 1 µM, first compound 0.0316 µM
[20] = second compound 1 µM, first compound 0.1 µM
[21] = second compound 1 µM, first compound 0.316 µM
[22] = second compound 1 µM, first compound 1 µM
[23] = second compound 1 µM, first compound 3.16 µM
[24] = second compound 1 µM, first compound 10 µM
[25] = second compound 3.16 µM, first compound 0.0316 µM
[26] = second compound 3.16 µM, first compound 0.1 µM
[27] = second compound 3.16 µM, first compound 0.316 µM
[28] = second compound 3.16 µM, first compound 1 µM
[29] = second compound 3.16 µM, first compound 3.16 µM
[30] = second compound 3.16 µM, first compound 10 µM
[31] = second compound 10 µM, first compound 0.0316 µM
[32] = second compound 10 µM, first compound 0.1 µM
[33] = second compound 10 µM, first compound 0.316 µM
[34] = second compound 10 µM, first compound 1 µM
[35] = second compound 10 µM, first compound 3.16 µM
[36] = second compound 10 µM, first compound 10 µM
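Also: spheroids exposed to compounds for 7 days before readout.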
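For viability, T/C in this document: percent of vehicle DMSO control viability with 100% = untreated-like growth.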

## C=CCn1c(=O)c2cnc(Nc3ccc(N4CCN(C)CC4)cc3)nc2n1-c1cccc(C(C)(C)O)n1 + Cc1[nH]c2ccc(F)cc2c1-c1nc2c3cccnc3c3ncccc3c2[nH]1
Second compound 0.0316 µM
  IC50: 4250 nM
Second compound 0.1 µM
  IC50: 3540 nM
Second compound 0.316 µM
  IC50: 3230 nM
Second compound 1 µM
  IC50: 1950 nM
Second compound 3.16 µM
  IC50: 44.7 nM
Second compound 10 µM
  IC50: < 31.6 nM
[1]
  viability, T/C: 101%
[2]
  viability, T/C: 61.7%
[3]
  viability, T/C: 95%
[4]
  viability, T/C: 73.2%
[5]
  viability, T/C: 63.7%
[6]
  viability, T/C: 15.3%
[7]
  viability, T/C: 80.2%
[8]
  viability, T/C: 65.2%
[9]
  viability, T/C: 79.8%
[10]
  viability, T/C: 62.2%
[11]
  viability, T/C: 56.5%
[12]
  viability, T/C: 12.7%
[13]
  viability, T/C: 91.6%
[14]
  viability, T/C: 70.5%
[15]
  viability, T/C: 77.7%
[16]
  viability, T/C: 70%
[17]
  viability, T/C: 51.4%
[18]
  viability, T/C: 12.8%
[19]
  viability, T/C: 84.5%
[20]
  viability, T/C: 71%
[21]
  viability, T/C: 72.6%
[22]
  viability, T/C: 59.5%
[23]
  viability, T/C: 44.3%
[24]
  viability, T/C: 11%
[25]
  viability, T/C: 50.3%
[26]
  viability, T/C: 49.1%
[27]
  viability, T/C: 24%
[28]
  viability, T/C: 16.9%
[29]
  viability, T/C: 12.7%
[30]
  viability, T/C: 2.18%
[31]
  viability, T/C: 20.7%
[32]
  viability, T/C: 41.4%
[33]
  viability, T/C: 16.9%
[34]
  viability, T/C: 11.4%
[35]
  viability, T/C: 7.59%
[36]
  viability, T/C: 1.56%

## CCCS(=O)(=O)Nc1ccc(F)c(C(=O)c2c[nH]c3ncc(-c4ccc(Cl)cc4)cc23)c1F + Cc1[nH]c2ccc(F)cc2c1-c1nc2c3cccnc3c3ncccc3c2[nH]1
Second compound 0.0316 µM
  IC50: 2210 nM
Second compound 0.1 µM
  IC50: 2130 nM
Second compound 0.316 µM
  IC50: 2150 nM
Second compound 1 µM
  IC50: 2040 nM
Second compound 3.16 µM
  IC50: 781 nM
Second compound 10 µM
  IC50: < 31.6 nM
[1]
  viability, T/C: 95.9%
[2]
  viability, T/C: 90.4%
[3]
  viability, T/C: 95.1%
[4]
  viability, T/C: 92.5%
[5]
  viability, T/C: 30.9%
[6]
  viability, T/C: 14.5%
[7]
  viability, T/C: 130%
[8]
  viability, T/C: 114%
[9]
  viability, T/C: 89%
[10]
  viability, T/C: 81.2%
[11]
  viability, T/C: 31.7%
[12]
  viability, T/C: 13.2%
[13]
  viability, T/C: 96.4%
[14]
  viability, T/C: 83.7%
[15]
  viability, T/C: 81.8%
[16]
  viability, T/C: 91.4%
[17]
  viability, T/C: 30.5%
[18]
  viability, T/C: 16.1%
[19]
  viability, T/C: 108%
[20]
  viability, T/C: 120%
[21]
  viability, T/C: 74.3%
[22]
  viability, T/C: 93.2%
[23]
  viability, T/C: 23.9%
[24]
  viability, T/C: 11.8%
[25]
  viability, T/C: 89.2%
[26]
  viability, T/C: 66.7%
[27]
  viability, T/C: 71.9%
[28]
  viability, T/C: 45.3%
[29]
  viability, T/C: 9.06%
[30]
  viability, T/C: 6.19%
[31]
  viability, T/C: 33.6%
[32]
  viability, T/C: 31.9%
[33]
  viability, T/C: 23.1%
[34]
  viability, T/C: 22.8%
[35]
  viability, T/C: 3.93%
[36]
  viability, T/C: 4.48%
